Data on 64 molecules can be found in patent US20240158369A1, “PYRIMIDINE COMPOUND AS WEE-1 INHIBITOR” (WIGEN BIOMEDICINE TECHNOLOGY (SHANGHAI) CO., LTD., priority 2021, published 2024).

Molecules are shown by their SMILES. pIC50: −log10 of the molar value. Some results are limits rather than exact numbers.

Sequence of recombinant protein Wee-1 (P30291 whole entry): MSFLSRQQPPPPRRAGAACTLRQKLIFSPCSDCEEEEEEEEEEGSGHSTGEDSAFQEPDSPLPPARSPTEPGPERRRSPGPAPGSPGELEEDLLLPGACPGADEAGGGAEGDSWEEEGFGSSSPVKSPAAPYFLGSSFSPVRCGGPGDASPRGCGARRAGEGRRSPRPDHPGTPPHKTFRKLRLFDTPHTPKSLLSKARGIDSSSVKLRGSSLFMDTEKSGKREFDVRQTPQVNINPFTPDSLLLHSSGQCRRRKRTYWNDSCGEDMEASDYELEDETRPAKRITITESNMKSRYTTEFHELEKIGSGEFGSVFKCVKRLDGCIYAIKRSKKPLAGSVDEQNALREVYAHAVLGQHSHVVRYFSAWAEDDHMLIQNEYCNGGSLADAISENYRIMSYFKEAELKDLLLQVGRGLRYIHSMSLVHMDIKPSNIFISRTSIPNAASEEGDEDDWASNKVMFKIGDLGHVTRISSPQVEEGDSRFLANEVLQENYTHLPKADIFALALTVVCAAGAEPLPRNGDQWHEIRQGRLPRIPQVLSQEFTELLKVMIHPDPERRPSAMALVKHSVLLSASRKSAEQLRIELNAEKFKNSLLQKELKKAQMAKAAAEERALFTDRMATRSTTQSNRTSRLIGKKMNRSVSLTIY

This experiment concerns the target recombinant protein Wee-1 (Homo sapiens (Human), UniProt P30291). In words: HTRF assay for inhibiting enzymatic activity of recombinant protein Wee-1. In kind it is biochemical. As to conditions: compounds up to 200 nM, read-out: (IC50) Inhibitory activity against recombinant protein Wee-1. How it is done:
The inhibitory effect of the compounds on the enzyme activity of recombinant protein Wee-1 was determined by HTRF. The procedures are as follows:
After DMSO or serially diluted compounds (up to 200 nM, 1:5 diluted) and recombinant proteins were co-incubated in a kinase buffer at 37° C. for 30 min before Fluorescein-PolyGAT and ATP were added, and the reaction was initiated by addition of a substrate. After incubation at room temperature for 90 min, an antibody and a detection solution were added, and after further incubation at room temperature for 60 min, fluorescence values were detected (excitation wavelength: 340 nm, emission wavelengths: 495 and 520 nm). The 520 nm/495 nm fluorescence intensity ratio value was calculated, and compared with that of the DMSO group, and then the inhibition percentages and IC50 values of the compounds were calculated.
For orientation: Time-resolved FRET reads energy transfer from a long-lived donor to a nearby acceptor.
For `CN1CCc2c(cc(Nc3ncc(C#N)c(Nc4cccc(N=S(C)(C)=O)n4)n3)cc2C(F)F)C1` [Compound 21], the pIC50 (usually −log10 of the IC50, conventionally taken in molar units) is at least 8.00.

As to `CCOc1cc(Nc2ncc(C#N)c(Nc3cccc(N=S(C)(C)=O)n3)n2)cc2c1CCN(C)C2` [Compound 23], the pIC50 was at least 8.00.

Regarding `CC(C)Oc1cc(Nc2ncc(C#N)c(Nc3cccc(N=S(C)(C)=O)n3)n2)cc2c1CCN(C)C2` [Compound 24], the pIC50 was at least 8.00.

In the case of `CN1CCc2c(Cl)cc(Nc3ncc(C#N)c(Nc4cccc(N=S(C)(C)=O)n4)n3)cc2C1` [Compound 26], the pIC50 was at least 8.00.

With `CN1CCc2c(Br)cc(Nc3ncc(C#N)c(Nc4cccc(N=S(C)(C)=O)n4)n3)cc2C1` [Compound 27], the pIC50 is at least 8.00.

Turning to `Cc1cc(Nc2ncc(C#N)c(Nc3cccc(N=S(C)(C)=O)n3)n2)cc2c1C1(CC1)CN(C)C2` [Compound 30], the pIC50 was at least 8.00.

In the case of `CCc1cc(Nc2ncc(C#N)c(Nc3cccc(N=S(C)(C)=O)n3)n2)cc2c1C1(CC1)CN(C)C2` [Compound 31], the pIC50 was at least 8.00.

On to `CN1Cc2cc(Nc3ncc(C#N)c(Nc4cccc(N=S(C)(C)=O)n4)n3)cc(C3CC3)c2C2(CC2)C1` [Compound 32], for which the pIC50 was at least 8.00.

With `CC(C)c1cc(Nc2ncc(C#N)c(Nc3cccc(N=S(C)(C)=O)n3)n2)cc2c1C1(CC1)CN(C)C2` [Compound 33], the pIC50 is at least 8.00.

For `COc1cc(Nc2ncc(C#N)c(Nc3cccc(N=S(C)(C)=O)n3)n2)cc2c1C1(CC1)CN(C)C2` [Compound 34], the pIC50 is at least 8.00.

For the molecule `CN1Cc2cc(Nc3ncc(C#N)c(Nc4cccc(N=S(C)(C)=O)n4)n3)ccc2C(C)(C)C1` [Compound 35], the pIC50 is at least 8.00.

Turning to `Cc1cc(Nc2ncc(C#N)c(Nc3cccc(N=S(C)(C)=O)n3)n2)cc2c1C(C)(C)CN(C)C2` [Compound 36], the pIC50 was at least 8.00.

Take `CCc1cc(Nc2ncc(C#N)c(Nc3cccc(N=S(C)(C)=O)n3)n2)cc2c1C(C)(C)CN(C)C2` [Compound 37]: the pIC50 was at least 8.00.

As to `CC(C)c1cc(Nc2ncc(C#N)c(Nc3cccc(N=S(C)(C)=O)n3)n2)cc2c1C(C)(C)CN(C)C2` [Compound 38], the pIC50 was at least 8.00.

`CN1Cc2cc(Nc3ncc(C#N)c(Nc4cccc(N=S(C)(C)=O)n4)n3)cc(C3CC3)c2C(C)(C)C1` [Compound 39]: the pIC50 is at least 8.00.

For the molecule `COc1cc(Nc2ncc(C#N)c(Nc3cccc(N=S(C)(C)=O)n3)n2)cc2c1C(C)(C)CN(C)C2` [Compound 40], the pIC50 is at least 8.00.

As to `CN1CCc2c(cc(Nc3ncc(C#N)c(Nc4cccc(N=S(C)(C)=O)n4)n3)cc2N(C)C)C1` [Compound 44], the pIC50 was at least 8.00.

Consider `CCN1CCc2ccc(Nc3ncc(C#N)c(Nc4cccc(N=S(C)(C)=O)n4)n3)cc2C1` [Compound 45], for which the pIC50 was at least 8.00.

On to `CS(C)(=O)=Nc1cccc(Nc2nc(Nc3ccc4c(c3)CN(C3CC3)CC4)ncc2C#N)n1` [Compound 47], for which the pIC50 was at least 8.00.

With `CS(C)(=O)=Nc1cccc(Nc2nc(Nc3ccc4c(c3)CN(CCO)CC4)ncc2C#N)n1` [Compound 48], the pIC50 is at least 8.00.

Consider `COCCN1CCc2ccc(Nc3ncc(C#N)c(Nc4cccc(N=S(C)(C)=O)n4)n3)cc2C1` [Compound 49], for which the pIC50 was at least 8.00.

As for `CN(C)CCN1CCc2ccc(Nc3ncc(C#N)c(Nc4cccc(N=S(C)(C)=O)n4)n3)cc2C1` [Compound 50], the pIC50 is at least 8.00.

`CN(C)C1CCc2ccc(Nc3ncc(C#N)c(Nc4cccc(N=S(C)(C)=O)n4)n3)cc2C1` (stereo not shown) [Compound 51]: the pIC50 is at least 8.00.

On to `CN(C)C1CCCc2ccc(Nc3ncc(C#N)c(Nc4cccc(N=S(C)(C)=O)n4)n3)cc2C1` (stereo not shown) [Compound 53], for which the pIC50 is at least 8.00.

Consider `CN1CCCc2ccc(Nc3ncc(C#N)c(Nc4cccc(N=S(C)(C)=O)n4)n3)cc2C1` [Compound 54], for which the pIC50 was at least 8.00.

Turning to `CN(C)C1CC=Cc2ccc(Nc3ncc(C#N)c(Nc4cccc(N=S(C)(C)=O)n4)n3)cc2C1` (stereo not shown) [Compound 56], the pIC50 is at least 8.00.

As for `CN1CCOc2ccc(Nc3ncc(C#N)c(Nc4cccc(N=S(C)(C)=O)n4)n3)cc2C1` [Compound 57], the pIC50 was at least 8.00.

For `CN1CCSc2ccc(Nc3ncc(C#N)c(Nc4cccc(N=S(C)(C)=O)n4)n3)cc2C1` [Compound 58], the pIC50 is at least 8.00.

As to `CN1Cc2ccc(Nc3ncc(C#N)c(Nc4cccc(N=S(C)(C)=O)n4)n3)cc2C1` [Compound 59], the pIC50 is at least 8.00.

With `CN1CCc2ccc(Nc3ncc(C#N)c(Nc4ccnc(N=S(C)(C)=O)c4)n3)cc2C1` [Compound 65], the negative-log IC50 (pIC50) was at least 8.00.

For `CN1CCc2ccc(Nc3ncc(C#N)c(Nc4cncc(N=S(C)(C)=O)c4)n3)cc2C1` [Compound 66], the pIC50 was at least 8.00.

Turning to `CN1CCc2ccc(Nc3ncc(C#N)c(Nc4cc(N=S(C)(C)=O)ccn4)n3)cc2C1` [Compound 67], the pIC50 is at least 8.00.

As for `CN1CCc2ccc(Nc3ncc(C#N)c(Nc4cncc(N=S(C)(C)=O)n4)n3)cc2C1` [Compound 68], the pIC50 is at least 8.00.

Take `CN1CCc2ccc(Nc3ncc(C#N)c(Nc4ccnc(N=S(C)(C)=O)n4)n3)cc2C1` [Compound 69]: the pIC50 is at least 8.00.

For the molecule `CN1CCc2ccc(Nc3ncc(C#N)c(Nc4nccc(N=S(C)(C)=O)n4)n3)cc2C1` [Compound 70], the pIC50 was at least 8.00.

As for `CN1CCc2ccc(Nc3ncc(C#N)c(Nc4cc5ccccc5c(N=S(C)(C)=O)n4)n3)cc2C1` [Compound 71], the pIC50 was at least 8.00.

Take `CN1CCc2ccc(Nc3ncc(C#N)c(Nc4nc(N=S(C)(C)=O)cc5ccccc45)n3)cc2C1` [Compound 72]: the pIC50 was at least 8.00.

For `Cc1cc(Nc2ncc(C#N)c(Nc3ccc(F)c(N=S(C)(C)=O)n3)n2)cc2c1CCN(C)C2` [Compound 73], the pIC50 is at least 8.00.

For `Cc1cc(Nc2ncc(C#N)c(Nc3cc(F)cc(N=S(C)(C)=O)n3)n2)cc2c1CCN(C)C2` [Compound 74], the pIC50 is at least 8.00.

Consider `Cc1cc(Nc2ncc(C#N)c(Nc3nc(N=S(C)(C)=O)ccc3F)n2)cc2c1CCN(C)C2` [Compound 75], for which the pIC50 is at least 8.00.

Turning to `CN1CCc2ccc(Nc3ncc(C#N)c(-n4ccc5c(N=S(C)(C)=O)cccc54)n3)cc2C1` [Compound 76], the pIC50 is at least 8.00.

Take `CN1CCc2ccc(Nc3ncc(C#N)c(Nc4nc(N=S(C)(C)=O)cc5[nH]ccc45)n3)cc2C1` [Compound 81]: the pIC50 was at least 8.00.

With `CN1CCc2ccc(Nc3ncc(C#N)c(Nc4nc(N=S(C)(C)=O)cc5c4CCN5)n3)cc2C1` [Compound 82], the pIC50 is at least 8.00.

As to `CN1CCc2ccc(Nc3ncc(C#N)c(Nc4cc5c(c(N=S(C)(C)=O)n4)CCC5)n3)cc2C1` [Compound 83], the pIC50 is at least 8.00.

Turning to `COc1ccc(Nc2nc(Nc3ccc4c(c3)CN(C)CC4)ncc2C#N)nc1N=S(C)(C)=O` [Compound 84], the pIC50 is at least 8.00.

On to `CN1CCc2c(cc(Nc3ncc(C#N)c(Nc4cccc(N=S(C)(C)=O)n4)n3)cc2C(C)(C)C)C1` [Compound 86], for which the pIC50 was at least 8.00.

Turning to `Cc1cc(Nc2ncc(C#N)c(Nc3ccc4c(n3)N=S(C)(=O)C4)n2)cc2c1CCN(C)C2` (stereo not shown) [Compound 88], the pIC50 is below 7.30.

For `CCc1cc(Nc2ncc(C#N)c(Nc3ccc(F)c(N=S(C)(C)=O)n3)n2)cc2c1CCN(C)C2` [Compound 89], the pIC50 was at least 8.00.

`COc1cc(Nc2ncc(C#N)c(Nc3ccc(F)c(N=S(C)(C)=O)n3)n2)cc2c1CCN(C)C2` [Compound 90]: the pIC50 is at least 8.00.

For the molecule `CC(C)c1cc(Nc2ncc(C#N)c(Nc3ccc(F)c(N=S(C)(C)=O)n3)n2)cc2c1CCN(C)C2` [Compound 91], the pIC50 was at least 8.00.

On to `CCOc1cc(Nc2ncc(C#N)c(Nc3ccc(F)c(N=S(C)(C)=O)n3)n2)cc2c1CCN(C)C2` [Compound 92], for which the pIC50 is at least 8.00.

Regarding `CC(C)Oc1cc(Nc2ncc(C#N)c(Nc3ccc(F)c(N=S(C)(C)=O)n3)n2)cc2c1CCN(C)C2` [Compound 93], the pIC50 is at least 8.00.

As for `CN1CCc2c(cc(Nc3ncc(C#N)c(Nc4ccc(F)c(N=S(C)(C)=O)n4)n3)cc2C2CC2)C1` [Compound 94], the pIC50 was at least 8.00.

Consider `CN1CCc2c(cc(Nc3ncc(C#N)c(Nc4cccc(N=S(C)(C)=O)n4)n3)cc2N2CCC2)C1` [Compound 95], for which the pIC50 is at least 8.00.

On to `CN1CCc2c(cc(Nc3ncc(C#N)c(Nc4ccc(F)c(N=S(C)(C)=O)n4)n3)cc2N2CCC2)C1` [Compound 96], for which the negative-log IC50 (pIC50) is at least 8.00.

Take `CN1CCc2c(cc(Nc3ncc(C#N)c(Nc4ccc(F)c(N=S(C)(C)=O)n4)n3)cc2C2CCC2)C1` [Compound 98]: the pIC50 was at least 8.00.

As for `CN1CCc2c(cc(Nc3ncc(C#N)c(Nc4ccc(F)c(N=S(C)(C)=O)n4)n3)cc2C2CCCC2)C1` [Compound 99], the pIC50 was at least 8.00.

With `CN1CCc2c(cc(Nc3ncc(C#N)c(Nc4ccc(F)c(N=S(C)(C)=O)n4)n3)cc2C2=CCCC2)C1` [Compound 100], the pIC50 is at least 8.00.

`CN1CCc2c(cc(Nc3ncc(C#N)c(Nc4ccc(F)c(N=S(C)(C)=O)n4)n3)cc2C2(C)CC2)C1` [Compound 102]: the pIC50 was at least 8.00.

With `CN1CCc2ccc(Nc3ncc(C#N)c(Nc4cccc(N=S(C)(C)=O)n4)n3)cc2C12CC2` [Compound 103], the pIC50 is at least 8.00.

Take `CN1CCc2ccc(Nc3ncc(C#N)c(Nc4cccc(N=S(C)(C)=O)n4)n3)cc2C1(C)C` [Compound 104]: the pIC50 was at least 8.00.

As for `CN1CCc2c(cc(Nc3ncc(C#N)c(Nc4cccc(N=S(C)(C)=O)n4)n3)cc2-c2ccoc2)C1` [Compound 114], the pIC50 is at least 8.00.

Take `CN1CCc2c(CC3CCC3)cc(Nc3ncc(C#N)c(Nc4cccc(N=S(C)(C)=O)n4)n3)cc2C1` [Compound 125]: the pIC50 was at least 8.00.

With `CN1CCc2c(cc(Nc3ncc(C#N)c(Nc4cccc(N=S(C)(C)=O)n4)n3)cc2-c2ccncc2)C1` [Compound 126], the pIC50 was at least 8.00.
